Experimental findings from patent publication US4160829A, “Antibacterial 1,2,4-oxadiazolylacetamido cephalosporins” (Gist-Brocades N.V., priority 1972, dated 1979) are described below.

SMILES strings stand for the structures. Like-named read-outs stand apart in the source and are kept apart here.

In series [1] the test system is Klebsiella pneumoniae A 265. The series can be described thus: protection test. The format is in vivo. Conditions: i.p.
A further series deals with Staph.aureus A 321. The experiment in a line: agar serial dilution test. The format is cell-based, Staphylococcus aureus. Conditions: Staphylococcus aureus, A321, 24 h, agar serial dilution, 24 hours, 37° C.; read-out: minimal inhibitory concentration (MIC).
For another series, the system named is Pseud.aerug. 2396. The experiment in a line: agar serial dilution test. The format is cell-based. Particulars: agar serial dilution, 24 hours, 37° C.; read-out: minimal inhibitory concentration (MIC).
The next series relates to Sarc. lutea ATCC 9341. The experiment in a line: micro serial dilution test. The format is cell-based. Conditions: Micrococcus luteus, ATCC9341; micro serial dilution (in brackets), about 18 hours, 30° C. or 37° C.; read-out: minimal inhibitory concentration (MIC).
Series [2] relates to Staph.aureus A 2000. The experiment in a line: agar serial dilution test. In kind it is cell-based, Staphylococcus aureus. Conditions: Staphylococcus aureus, A2000, 24 h, agar serial dilution, 24 hours, 37° C.; read-out: minimal inhibitory concentration (MIC).
Series [3] concerns Staph.aureus A 2001. The experiment in a line: agar serial dilution test. In kind it is cell-based, Staphylococcus aureus. Conditions: Staphylococcus aureus, A2001, 24 h, agar serial dilution, 24 hours, 37° C.; read-out: minimal inhibitory concentration (MIC).
The next series deals with Prot.mirab. L 93. The series can be described thus: agar serial dilution test. The format is cell-based, Proteus mirabilis. Conditions: Proteus mirabilis; agar serial dilution, 24 hours, 37° C.; read-out: minimal inhibitory concentration (MIC).
Series [4] relates to Staph.aureus A 355. The series can be described thus: agar serial dilution test. Conditions: Staphylococcus aureus, A355, 24 h, read-out: minimal inhibitory concentration (MIC), agar serial dilution, 24 hours, 37° C.; penicillinase-producing strain.
Series [5] relates to Staph.aureus A 2000. The series can be described thus: micro serial dilution test. In kind it is cell-based, Staphylococcus aureus. Conditions: Staphylococcus aureus, A2000, 18 h, micro serial dilution (in brackets), about 18 hours, 30° C. or 37° C.; read-out: minimal inhibitory concentration (MIC).
A further series concerns Prot.morg. 2241. The experiment in a line: agar serial dilution test. In kind it is cell-based. Conditions: 24 h, agar serial dilution, 24 hours, 37° C.; read-out: minimal inhibitory concentration (MIC).
The test system of a further series is Pseud.aerug. H 10. The experiment in a line: agar serial dilution test. Conditions: agar serial dilution, 24 hours, 37° C.; read-out: minimal inhibitory concentration (MIC). The format is cell-based.
A further series relates to Past.multo. A 723. The series can be described thus: agar serial dilution test. In kind it is cell-based, Pasteurella multocida. Conditions: Pasteurella multocida; agar serial dilution, 24 hours, 37° C.; read-out: minimal inhibitory concentration (MIC).
In another series the test system is Bac.Subt.ATCC 6633. The series can be described thus: agar serial dilution test. In kind it is cell-based, Bacillus subtilis. Conditions: Bacillus subtilis, ATCC6633, 24 h, agar serial dilution, 24 hours, 37° C.; read-out: minimal inhibitory concentration (MIC).
For another series, the system named is Salm.typh. R 172. The series can be described thus: agar serial dilution test. In kind it is cell-based. Particulars: 24 h, read-out: minimal inhibitory concentration (MIC).
The test system of the next series is Kleb.pneum. A 809. The series can be described thus: agar serial dilution test. In kind it is cell-based, Klebsiella pneumoniae. Conditions: Klebsiella pneumoniae; agar serial dilution, 24 hours, 37° C.; read-out: minimal inhibitory concentration (MIC).
Series [6] relates to Staph.aureus A 2001. The experiment in a line: micro serial dilution test. The format is cell-based, Staphylococcus aureus. Particulars: Staphylococcus aureus, A2001, 18 h, micro serial dilution (in brackets), about 18 hours, 30° C. or 37° C.; read-out: minimal inhibitory concentration (MIC).
Series [7] relates to Prot.mirab. A 1200. The series can be described thus: agar serial dilution test. Conditions: Proteus mirabilis, 24 h, agar serial dilution, 24 hours, 37° C.; read-out: minimal inhibitory concentration (MIC). The format is cell-based, Proteus mirabilis.
The test system of another series is Prot.rettg. A 821. The series can be described thus: agar serial dilution test. Particulars: Providencia rettgeri, 24 h, agar serial dilution, 24 hours, 37° C.; read-out: minimal inhibitory concentration (MIC). In kind it is cell-based, Proteus rettgeri.
The next series concerns Esch.coli U 20. The series can be described thus: agar serial dilution test. The format is cell-based, Escherichia coli. Conditions: Escherichia coli, U20; agar serial dilution, 24 hours, 37° C.; read-out: minimal inhibitory concentration (MIC).
Another series relates to Strep. faec. L 80. The experiment in a line: agar serial dilution test. In kind it is cell-based, Streptococcus faecalis. Conditions: Enterococcus faecalis; agar serial dilution, 24 hours, 37° C.; read-out: minimal inhibitory concentration (MIC).
In the next series the test system is Haem.Suis A 2096. The series can be described thus: micro serial dilution test. Conditions: micro serial dilution (in brackets), about 18 hours, 30° C. or 37° C.; read-out: minimal inhibitory concentration (MIC). In kind it is cell-based.
Another series has as its system Bruc. Suis A 2126. The series can be described thus: agar serial dilution test. In kind it is cell-based. Conditions: Brucella suis, 24 h, read-out: minimal inhibitory concentration (MIC).
Series [8] relates to Prot.mirab. A 1200. The series can be described thus: micro serial dilution test. In kind it is cell-based. Conditions: Proteus mirabilis; micro serial dilution (in brackets), about 18 hours, 30° C. or 37° C.; read-out: minimal inhibitory concentration (MIC).
For another series, the system named is Proteus mirabilis A 1200. The series can be described thus: protection test. In kind it is in vivo. Conditions: s.c.; for ED50: protection test.
Series [9] relates to Staph.aureus A 355. The experiment in a line: micro serial dilution test. In kind it is cell-based, Staphylococcus aureus. Conditions: Staphylococcus aureus, A355; micro serial dilution (in brackets), about 18 hours, 30° C. or 37° C.; penicillinase-producing strain; read-out: minimal inhibitory concentration (MIC).
Another series relates to Actinob.equ. T 3. The experiment in a line: agar serial dilution test. The format is cell-based. Particulars: 24 hours, 37° C., read-out: minimal inhibitory concentration (MIC).
Series [10] deals with Pseud.aerug. Wyeth A 1058. The series can be described thus: agar serial dilution test. The format is cell-based. Conditions: agar serial dilution, 24 hours, 37° C.; read-out: minimal inhibitory concentration (MIC).
The test system of the next series is Salm.dubl. P 43. The series can be described thus: agar serial dilution test. In kind it is cell-based, Salmonella dublin. Conditions: Salmonella enterica; agar serial dilution, 24 hours, 37° C.; read-out: minimal inhibitory concentration (MIC).
The subject of another series is Proteus rettgeri A 821. The experiment in a line: protection test. The format is in vivo. Conditions: s.c.
The subject of a further series is Dipl.pneum. L 54. The series can be described thus: agar serial dilution test. The format is cell-based, Diplococcus pneumoniae. Conditions: Streptococcus pneumoniae; agar serial dilution, 24 hours, 37° C.; read-out: minimal inhibitory concentration (MIC).
The subject of another series is Prot.mirab. H 3. The series can be described thus: agar serial dilution test. The format is cell-based, Proteus mirabilis. Conditions: Proteus mirabilis; agar serial dilution, 24 hours, 37° C.; read-out: minimal inhibitory concentration (MIC).
For the next series, the system named is Strep.haem A 1088. The experiment in a line: agar serial dilution test. In kind it is cell-based, Streptococcus haemolyticus. Conditions: Streptococcus, A1088, 24 hours, 37° C., read-out: minimal inhibitory concentration (MIC).
A short description of series [11]: stability in refluxing slightly moist diethyl ether (thin-layer chromatography). The format is physicochemical. Conditions: refluxed 24 hours, read-out: destruction to 5-methyl-1,2,4-oxadiazol-3-yl-acetic acid. Here is the method: Stability of 1,2,4-oxadiazol-3,5-diyl-bisacetic acid: A small sample was dissolved in slightly moist diethyl ether and the solution was refluxed for 24 hours.

`Cn1nnnc1SCC1=C(C(=O)O)N2C(=O)[C@@H](NC(=O)Cc3nc(CC(=O)O)no3)[C@H]2SC1` [Compound F, disodium 7-[(3-carboxymethyl-1,2,4-oxadiazol-5-yl)-acetamido]-3[1-methyl-tetrazol-5-yl-mercaptomethyl] 3-cephem-4-carboxylate]: the ED50 in [1] (Klebsiella pneumoniae, A265, ip, protection test) was 16 mg/kg; with Proteus mirabilis A 1200 (Proteus mirabilis, A1200, sc, read-out: ED50), 2.2 mg/kg; with Proteus mirabilis A 1200, 1,35 mg/kg; in the series with Proteus rettgeri A 821 (Providencia rettgeri, A821, sc, protection test), 0.023 mg/kg. The Potency ratio in [1] (reference Cefalotin) is reported as 5,7; in the series on Proteus mirabilis A 1200 (reference Cefalotin) it was 6,9; in the series with Proteus mirabilis A 1200 (reference Cefazolin) it was 6,5; in the series on Proteus rettgeri A 821 (reference Cefalotin) it was greater than 5. The MIC in the series with Staph.aureus A 321 came out at 3 µg/mL; in the series with Pseud.aerug. 2396 it was 100 µg/mL; in the series with Sarc. lutea ATCC 9341, 3.7 µg/mL; with Staph.aureus A 2000 [2], 6 µg/mL; in the series with Staph.aureus A 2001 [3] it was 6 µg/mL; with Prot.mirab. L 93, 1.5 µg/mL. For the same compound, the MIC stood at 6 µg/mL in the series on Staph.aureus A 355 [4]; 4 µg/mL with Staph.aureus A 2000 [5]; 25 µg/mL in the series with Prot.morg. 2241; 100 µg/mL with Pseud.aerug. H 10; 1 µg/mL with Past.multo. A 723; 1.5 µg/mL with Bac.Subt.ATCC 6633. In addition, the MIC turned out to be 0.75 µg/mL in the series on Salm.typh. R 172; 0.5 µg/mL in the series on Kleb.pneum. A 809; 3.7 µg/mL in the series on Staph.aureus A 2001 [6]; 3 µg/mL in the series on Prot.mirab. A 1200 [7]; 0.25 µg/mL in the series on Prot.rettg. A 821; 0.75 µg/mL in the series with Esch.coli U 20. Also, the MIC was greater than 100 µg/mL in the series on Strep. faec. L 80; 0.23 µg/mL in the series with Haem.Suis A 2096; 1 µg/mL in the series with Bruc. Suis A 2126; 1.2 µg/mL in the series on Prot.mirab. A 1200 [8]; 6 µg/mL with Staph.aureus A 355 [9]; 0.5 µg/mL in the series on Actinob.equ. T 3. For the same compound, the MIC was 100 µg/mL in [10]; 0.5 µg/mL with Salm.dubl. P 43; 1 µg/mL in the series with Dipl.pneum. L 54; 1.5 µg/mL in the series on Prot.mirab. H 3; 3 µg/mL with Strep.haem A 1088.
In the case of `O=C(O)Cc1nc(Cc2ccccc2)no1` [Example 12A, 3-benzyl-1,2,4-oxadiazol-5-yl-acetic acid], the antiphlogistic activity result in the series “antiphlogistic activity” is reported as “antiphlogistic activity”.
As for `O=C(O)Cc1noc(CC(=O)O)n1` [Example 39, 1,2,4-oxadiazole-3,5-diyl-bisacetic acid], in series [11], the degraded at 24 h was less than 5%.
